Assay results: patent US6562464B1, “Utilization of phenylglyoxalic acid esters as photoinitiators” (BASF Aktiengesellschaft, priority 1999, dated 2003)
Like-named read-outs stand apart in the source and are kept apart here.

Key:
Assay type in all cases: physicochemical
[1] = Weight loss after 3 hours at 130° C.
Method: 12.0 g of pentaerythritol, 42.8 g of phenylglyoxylic acid and 0.27 g of sulfuric acid are suspended in 17.8 g of methylcyclohexane and the suspension is heated under reflux. The water of esterification is removed via a separating vessel, so that the esterification reaction is at an end after 8 hours. Distillation of the methylcyclohexane leaves a solid melt (acid number 25 mg KOH/g). The weight loss after 3 hours at 130° C. is 7.3%.
21.4 g of 1,4-butanediol diglycidyl ether (Araldit DY026) are mixed with 30 g of phenylglyoxylic acid in the presence of 0.5 g of tetrabutylammonium bromide. The mixture is cautiously heated to 103° C. and is held at this temperature for 5 hours until the acid number has fallen to 7.2 mg KOH/g. The product is a highly viscous liquid (153.6 Pas). The weight loss after 3 hours at 130° C. is 0.7%.
28.84 g of 1,4-bis(hydroxymethyl)cyclohexane, 72.23 g of methyl phenylglyoxylate and 0.82 g of dibutoxydibutyltin are melted over 180° C. in a reaction flask and methanol is distilled off via a column. After virtually all of the theoretical amount of methanol has passed over, the residue is concentrated on a rotary evaporator, the concentrate is digested in ethanol, and the resulting solid is filtered off with suction. The IR and H-NMR spectra correspond to the expected structure. The melting point is 92° C. The weight loss after 3 hours at 130° C. is 0.5%.

[2] = Solubility in hexanediol diacrylate (HDDA); parameters: key: sol = soluble; insol = insoluble
Text: a) Solubility in hexanediol diacrylate (HDDA)

[3] = Solubility in Laromer LR 8987
Text: Using a box-type coating bar, a glass plate was coated with this formulation so as to form a film having a thickness of 50 μm or 100 μm. This film was subsequently cured in an IST belt exposure unit at 10 m/min under air.
4 parts of 4,4′-isopropylidenedicyclohexanol di(phenylglyoxylate) [hydrogenated bisphenol-A-di(phenylglyoxylate)] were insoluble in 96 parts of Laromer LR 8987. Therefore, radiation curing was not possible.
However, the solubility was sufficient to prepare and cure a film as described above.

[4] = Solubility in an aliphatic urethane acrylate; details: 2%
Method: b) The solubility of 2% each of 1,4-cyclohexanedimethanol di(phenylglyoxylate) and 4,4′-isopropylidenedicyclohexanol di(phenylglyoxylate) in an aliphatic urethane acrylate was also tested.

Molecule | weight loss after 3 hours at 130° C. [1] [%] | Solubility in hexanediol diacrylate (HDDA) ([2]; 1%) | Solubility in hexanediol diacrylate (HDDA) ([2]; 2%) | solubility in Laromer LR 8987 ([3]; 4 parts in 96 parts of Laromer LR 8987 (mixture of hexanediol diacrylate and an aliphatic urethane acrylate)) | solubility in an aliphatic urethane acrylate [4] | Solubility in hexanediol diacrylate (HDDA) ([2]; 3%) | solubility in Laromer LR 8987 [3]
1,4-Butanediol Diglycidyl Ether Diglyoxylate [Example 2] | 0.7 | – | – | – | – | – | –
4,4′-isopropylidenedicyclohexanol di(phenylglyoxylate) | – | sol | in- | insoluble | insoluble or did not dissolve completely | – | –
O=C(OC1CCC(OC(=O)C(=O)c2ccccc2)CC1)C(=O)c1ccccc1 (stereo not shown) [1,4-cyclohexanediol di(phenylglyoxylate)] | – | sol | sol | – | – | in- | did not dissolve completely
O=CC(=O)OCC(COC(=O)C=O)(COC(=O)C=O)COC(=O)C=O [Example 1, Pentaerythritol Tetraglyoxylate] | 7.3 | – | – | – | – | – | –
